The source of these data is paper PMC6421522, “Designing Dual Inhibitors of Anaplastic Lymphoma Kinase (ALK) and Bromodomain-4 (BRD4) by Tuning Kinase Selectivity” (Journal of Medicinal Chemistry, 2019).

One data set in a line: PAMPA permeability assay. Type of data set: in vitro ADME. The note with it: pH 7.4. An excerpt:
Table 3 Physicochemical Properties of 16k | column: result

A further data set addresses T1, AURKB (Homo sapiens, UniProt Q96GD4).
T1 construct: purchased DiscoveRx KINOMEscan (scanEDGE); Thermo Fisher SelectScreen (Z'-LYTE) for PLK-1
Description: KINOMEscan scanEDGE. Format: binding. The note with it: read-out: % Control (1µM). On the procedure:
(§1) Compound X was assayed at 1 μM in the DiscoveRx KINOMEscan (scanEDGE) assay platform. The results for single-concentration binding interactions are reported as “%Ctrl” (DMSO = 100%Ctrl), where lower numbers indicate stronger hits.

The target of a further data set is T2, FLT3 (Homo sapiens, UniProt P36888).
T2 construct: purchased DiscoveRx KINOMEscan (scanEDGE); Thermo Fisher SelectScreen (Z'-LYTE) for PLK-1
T2 sequence (P36888 27-993): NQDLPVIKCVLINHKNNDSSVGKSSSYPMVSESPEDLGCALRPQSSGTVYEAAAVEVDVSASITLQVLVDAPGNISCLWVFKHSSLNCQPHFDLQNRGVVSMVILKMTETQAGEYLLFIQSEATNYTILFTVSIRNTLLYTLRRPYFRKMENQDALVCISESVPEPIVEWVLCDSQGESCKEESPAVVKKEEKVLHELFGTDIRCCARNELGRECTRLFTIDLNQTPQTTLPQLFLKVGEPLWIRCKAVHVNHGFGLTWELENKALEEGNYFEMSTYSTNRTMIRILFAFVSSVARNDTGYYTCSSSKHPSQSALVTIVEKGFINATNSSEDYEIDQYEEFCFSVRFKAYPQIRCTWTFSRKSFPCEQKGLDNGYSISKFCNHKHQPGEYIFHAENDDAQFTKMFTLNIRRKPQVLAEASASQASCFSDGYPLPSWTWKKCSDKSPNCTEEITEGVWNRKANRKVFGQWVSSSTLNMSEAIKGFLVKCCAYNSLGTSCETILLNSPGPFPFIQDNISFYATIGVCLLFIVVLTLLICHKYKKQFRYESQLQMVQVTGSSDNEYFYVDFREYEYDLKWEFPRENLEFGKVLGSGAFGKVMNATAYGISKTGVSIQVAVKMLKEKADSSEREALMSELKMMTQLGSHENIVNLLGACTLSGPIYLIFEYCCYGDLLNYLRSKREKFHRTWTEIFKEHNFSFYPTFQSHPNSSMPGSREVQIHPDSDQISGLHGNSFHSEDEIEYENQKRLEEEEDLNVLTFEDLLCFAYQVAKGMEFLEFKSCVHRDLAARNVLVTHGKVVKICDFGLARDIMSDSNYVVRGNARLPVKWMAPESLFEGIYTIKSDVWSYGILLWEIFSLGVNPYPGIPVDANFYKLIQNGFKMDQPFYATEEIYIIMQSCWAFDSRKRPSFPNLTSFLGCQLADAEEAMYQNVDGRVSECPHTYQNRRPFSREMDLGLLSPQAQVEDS
Nature of the data set: KINOMEscan scanEDGE. Format: binding. The note with it: read-out: % Control (1µM). The procedure: as §1

The next data set concerns the target T3, IKK-beta (Homo sapiens, UniProt O14920).
T3 construct: purchased DiscoveRx KINOMEscan (scanEDGE); Thermo Fisher SelectScreen (Z'-LYTE) for PLK-1
Nature of the data set: KINOMEscan scanEDGE. Type of data set: binding. The note with it: read-out: % Control (1µM). On the procedure: as §1

T3 sequence (O14920 whole entry): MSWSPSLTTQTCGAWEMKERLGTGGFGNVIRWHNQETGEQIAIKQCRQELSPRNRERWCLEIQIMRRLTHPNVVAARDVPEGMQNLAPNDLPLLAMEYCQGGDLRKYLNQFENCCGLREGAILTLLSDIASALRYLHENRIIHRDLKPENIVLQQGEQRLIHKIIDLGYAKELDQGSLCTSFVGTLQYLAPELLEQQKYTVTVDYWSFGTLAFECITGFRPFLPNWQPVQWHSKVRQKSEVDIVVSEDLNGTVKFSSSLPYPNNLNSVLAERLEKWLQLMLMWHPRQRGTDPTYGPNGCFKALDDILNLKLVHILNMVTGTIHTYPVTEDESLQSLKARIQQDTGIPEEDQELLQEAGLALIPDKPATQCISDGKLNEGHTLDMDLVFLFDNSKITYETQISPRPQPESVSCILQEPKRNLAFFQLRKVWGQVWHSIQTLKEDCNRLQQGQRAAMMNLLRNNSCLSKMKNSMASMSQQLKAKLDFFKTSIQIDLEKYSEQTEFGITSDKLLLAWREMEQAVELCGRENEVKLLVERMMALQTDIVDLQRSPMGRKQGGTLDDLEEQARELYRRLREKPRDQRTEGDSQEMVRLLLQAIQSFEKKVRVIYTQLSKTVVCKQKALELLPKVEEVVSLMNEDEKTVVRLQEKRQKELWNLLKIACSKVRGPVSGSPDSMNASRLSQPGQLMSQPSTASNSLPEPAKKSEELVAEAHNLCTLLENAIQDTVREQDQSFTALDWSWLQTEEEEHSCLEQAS
T1 sequence (Q96GD4 whole entry): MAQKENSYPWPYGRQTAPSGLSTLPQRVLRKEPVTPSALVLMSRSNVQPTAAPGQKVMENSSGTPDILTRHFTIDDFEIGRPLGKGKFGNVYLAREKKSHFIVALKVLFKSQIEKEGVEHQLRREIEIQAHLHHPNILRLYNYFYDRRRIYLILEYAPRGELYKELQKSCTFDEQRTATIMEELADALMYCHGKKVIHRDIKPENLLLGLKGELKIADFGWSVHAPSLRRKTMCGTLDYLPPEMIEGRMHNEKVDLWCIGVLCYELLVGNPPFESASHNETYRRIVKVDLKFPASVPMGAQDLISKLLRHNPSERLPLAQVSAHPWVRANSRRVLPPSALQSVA

Take `CCOc1cc(C2CCN(C)CC2)ccc1Nc1ncc2c(n1)N(Cc1cc(C)cs1)[C@H](CC)C(=O)N2C` [16k, (R)-2-((2-Ethoxy-4-(1-methylpiperidin-4-yl)phenyl)amino)-7-ethyl-5-methyl-8-((4-methylthiophen-2-yl)methyl)-7,8-dihydropteridin-6(5H)-one]: the “PAMPA pH7.4” value in the data set “PAMPA permeability assay” is 49 × 10^–6 cm/s. Further, the remaining binding at 1 µM at AURKB turned out to be 86%; at FLT3 it was 100%; on IKK-beta, 100%.
